According to article PMC7689096, “Cyclizing Painkillers: Development of Backbone-Cyclic TAPS Analogs” (Frontiers in Chemistry, 2020):
Values joined by “and” are separate entries in the source; they are usually repeats but may differ in a detail not shown here. Identical values can stand only once.

Molecular target: T1, human recombinant μ (MOP, OPRM1) receptor (Homo sapiens, UniProt P35372)
T1 construct: host or cells: CHO cells
Experiment: MOP opioid receptor functional agonism in CHO cells expressing human recombinant μ receptors
Assay type: cell-based
Settings: At 10^−6 M, percent of control specific agonist response, values lower than 25% not significant
Protocol: Peptides were tested for μ (MOP, OPRM1) and δ (DOP, OPRD2) opioid receptor activation functional agonism and antagonism using CHO cells expressing human recombinant μ receptors and NG-10815 cells which express significant endogenous levels of δ opioid receptors. The cultures were incubated for 10 min at 37°C followed by impedance measurements of CHO cells and cAMP was assayed by the HTRF method using NG-10815 cells, according to CEREP standard assay protocols. The respective reference, non-peptide small molecules were tested concurrently with the TAPS analogs. The agonist compounds were: DPDPE (selective agonist of DOP receptor) and DAMGO (high MOP receptor specificity) and the antagonist compounds were: Naltrindole (selective DOP receptor antagonist) and CTOP (MOP receptor antagonist). […] The results are expressed as a percentage of respective control-specific response. […] These findings indicate that TAPS cyclic peptides are MOP selective full agonists. […] The cyclic TAPS peptide had lower activity than the linear parent TAPS peptide (90 ± 5%) – a finding that can be attributed to their restricted conformation relative to the flexible linear peptide conformation.
Evaluation of the Agonist Activity of Compounds at the Human μ Receptor in Transfected CHO Cells, Determined by Measuring Their Effects on cAMP modulation Using the HTRF Detection Method
Thereafter, the adenylyl cyclase activator NKH 477 is added at a final concentration of […]. Following 10 min incubation at 37°C, the cells are lysed and the fluorescence acceptor (D2-labeled cAMP) and fluorescence donor (anti-cAMP antibody labeled with europium cryptate) are added. After 60 min at room temperature, the fluorescence transfer is measured at lex = 337 nm and lem = 620 and 665 nm using a microplate reader (Rubystar, BMG). The cAMP concentration is determined by dividing the signal measured at 665 nm by that measured at 620 nm (ratio). The results are expressed as a percent of the control response to 1 μM DAMGO. The standard reference agonist is DAMGO, which is tested in each experiment at several concentrations to generate a concentration-response curve from which its EC50 value is calculated.
The respective reference, non-peptide small molecules were tested concurrently with the TAPS analogs; Agonist compounds DPDPE ([D-Pen2,D-Pen5]enkephalin), selective agonist of DOP receptor at 2 × 10^−9 M and DAMGO ([D-Ala2, N-MePhe4, Gly-ol] enkephalin), high MOP specificity at 2.5 × 10^−9 M; Antagonist compounds: naltrindole 7-(cyclopropylmethyl)-6,7-dehydro-4,5α-epoxy-3,14-dihydroxy-6,7-2′,3′-indolomorphinan hydrochloride, selective DOP antagonist, 5 × 10^−10 M and CTOP (D-Phe-Cys-Tyr-D-Trp-Orn-Thr-Pen-Thr-NH2), MOP antagonist at 3.4 × 10^−7 M. Depending on the assay volume and solvent tolerance, the stock solutions were diluted to [100×], [333×] or [1,000×] in 100% DMEM solvent, then either added directly or further diluted to [10×] or [5×] in H2O or Hank's balanced salt solution (HBSS) before addition to the assay well (final solvent concentration kept constant). The cultures were incubated for 10 min at 37°C followed by impedance measurements using cellular dielectric spectroscopy of CHO cells and cAMP was assayed by homogeneous time resolved fluorescence (HTRF) method using NG-10815 cells, according to CEREP standard assay protocols (https://euroscreenfast.com/assays/opioid-orl1-camp-fast-0360c; https://euroscreenfast.com/assays/opioid-op1-delta-camp-fast-0379c). The results (mean of three experiments) are expressed as a percent of control specific agonist response [(measured TAPS specific response/control specific agonist response) × 100] and as a percent inhibition of control specific agonist response [100 – (measured TAPS specific response/control specific agonist response) × 100] obtained in the presence of the TAPS compounds. […]

T1 sequence (P35372 whole entry): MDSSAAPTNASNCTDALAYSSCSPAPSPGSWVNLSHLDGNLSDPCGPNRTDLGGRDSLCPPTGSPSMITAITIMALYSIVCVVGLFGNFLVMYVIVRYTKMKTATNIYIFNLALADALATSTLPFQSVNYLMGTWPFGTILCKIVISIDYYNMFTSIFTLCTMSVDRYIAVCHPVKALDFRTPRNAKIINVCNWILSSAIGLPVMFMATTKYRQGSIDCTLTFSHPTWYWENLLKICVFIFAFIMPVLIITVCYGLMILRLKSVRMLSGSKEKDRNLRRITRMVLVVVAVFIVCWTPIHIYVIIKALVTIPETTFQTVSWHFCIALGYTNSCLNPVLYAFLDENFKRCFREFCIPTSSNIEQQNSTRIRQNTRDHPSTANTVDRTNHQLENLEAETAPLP

SMILES: N=C(N)NCCC[C@@H]1C(=O)N[C@@H](Cc2ccccc2)C(=O)N(CC(N)=O)CCNC(=O)NCCCCCCN1C(=O)[C@@H](N)Cc1ccc(O)cc1 [TAPS c(2-6)]
- MOP agonist (%): 48 ± 3% and 48^** %
